# Results from article PMC3525792 (Bioorganic & medicinal chemistry letters, 2012).
# B1: hDAT (Homo sapiens) (protein)
# chain: MSKSKCSVGLMSSVVAPAKEPNAVGPKEVELILVKEQNGVQLTSSTLTNPRQSPVEAQDRETWGKKIDFLLSVIGFAVDLANVWRFPYLCYKNGGGAFLVPYLLFMVIAGMPLFYMELALGQFNREGAAGVWKICPILKGVGFTVILISLYVGFFYNVIIAWALHYLFSSFTTELPWIHCNNSWNSPNCSDAHPGDSSGDSSGLNDTFGTTPAAEYFERGVLHLHQSHGIDDLGPPRWQLTACLVLVIVLLYFSLWKGVKTSGKVVWITATMPYVVLTALLLRGVTLPGAIDGIRAYLSVDFYRLCEASVWIDAATQVCFSLGVGFGVLIAFSSYNKFTNNCYRDAIVTTSINSLTSFSSGFVVFSFLGYMAQKHSVPIGDVAKDGPGLIFIIYPEAIATLPLSSAWAVVFFIMLLTLGIDSAMGGMESVITGLIDEFQLLHRHRELFTLFIVLATFLLSLFCVTNGGIYVFTLLDHFAAGTSILFGVLIEAIGVAWFYGVGQFSDDIQQMTGQRPSLYWRLCWKLVSPCFLLFVVVVSIVTFRPPHYGAYIFPDWANALGWVIATSSMAMVPIYAAYKFCSLPGSFREKLAYAIAPEKDRELVDRGEVRQFTLRHWLKV
# Key:
# [1] = biological target: SERT; settings: read-out: SERT binding Ki; cited from earlier work
# [2] = fluorescent properties; assay type: physicochemical
# [3] = substrate: NCCc1ccc(O)c(O)c1; assay: cells, lysate or membranes; settings: other: substrate KM, determined in parallel; mean [SE interval]
molecule,measurement,setting,value
CN(C)CCCC1(c2ccc(F)cc2)OCc2cc(-c3cccc(N)c3)ccc21 (stereo not shown) [compound 3],Ki,[1],10.4 nM
CCN(CC)c1ccc2c(-c3ccc(S(=O)(=O)NCCCCCC(=O)NCCC(=O)Nc4cccc(-c5ccc6c(c5)COC6(CCCN(C)C)c5ccc(F)cc5)c4)cc3S(=O)(=O)[O-])c3ccc(=[N+](CC)CC)cc-3oc2c1 (stereo not shown) [compound 8],maximal emission wavelength,[2],592 nm
same,maximal excitation wavelength,[2],570 nm
B1,Km,[3],1010[909;1120] nM
